According to patent publication US20220153766A1, “CONDENSED TRICYCLIC COMPOUND USED AS KINASE INHIBITOR” (Hangzhou Innogate Pharma Co., Ltd., priority 2019, published 2022):
pIC50: −log10 of the molar value.

Legend:
[1] = target: ALK (Homo sapiens, UniProt Q9UM73); experiment: ALK kinase activity inhibition, Caliper mobility shift assay, method 2; assay type: biochemical; conditions: ALK 1.25 nM, ATP 30 μM
Procedure: 2. ALK Kinase Activity Inhibition Experiment:
Method 2: Caliper mobility shift assay was used to measure ALK protein kinase activity. The method is basically the same as method 1, with individual parameters adjusted. The initial concentration of the compound is 1 mM, and sequentially diluted 4-fold to make 6 points (7 points for some individual compounds). Use a dispenser Echo 550 to transfer 250 nL of 100-fold final concentration of the compound to the target plate 3573, add 10 μL ALK with final concentration of 1.25 nM, incubate at room temperature for 10 minutes (the negative control well contains 10 μL kinase buffer and 250 nL 100% DMSO; the positive control well contains 10 μL kinase solution and 250 nL 100% DMSO). On the kinase ALK, add 15 μL of ATP with a final concentration of 30 μM and 3 μM of the substrate peptide No. 22 mixed solution to react for 25 minutes; add 30 μL of stop detection solution containing EDTA to stop the kinase reaction. Use Caliper EZ Reader to read the conversion rate. Inhibition rate %=(Average positive control conversion rate %−Sample conversion rate %/(Average positive control conversion rate %−Average negative control conversion rate %). Among them: negative control wells represent the conversion rate readings without enzyme activity; positive control wells represent the conversion rate readings of wells without compound inhibition. Take the log value of the concentration as the X-axis, and the percentage inhibition rate on the Y-axis. Log (inhibitor) vs. response—Variable slope of analysis software GraphPad Prism 5 was used to fit the curve to obtain the IC50 value of each compound on the enzyme activity. Calculation formula: Y=Bottom+(Top−Bottom)/(1+10^((Log IC50−X)*HillSlope)).

[2] = target: EGFR (T790M/L858R/C797S) (Homo sapiens, UniProt P00533, C797S/L858R/T790M); experiment: EGFR (T790M/L858R/C797S) kinase activity inhibition, Caliper mobility shift assay; assay type: biochemical; conditions: kinase 2.5 nM, ATP 40 μM
Procedure: The basic method is the same as ALK activity test method 2. The test concentration of the compound starts at 2 μM, and is diluted 5 folds into 6 (7 for individual compounds) concentration points. […] Add 30 μL of stop solution containing EDTA to stop the kinase reaction. Use Caliper EZ Reader to read the conversion rate. Inhibition rate %=(Average positive control conversion rate %−Sample conversion rate %/(Average positive control conversion rate %−Average negative control conversion rate %). Among them: negative control wells represent the conversion rate readings without enzyme activity; positive control wells represent the conversion rate readings of wells without compound inhibition. Take the log value of the concentration as the X-axis, and the percentage inhibition rate on the Y-axis. Log (inhibitor) vs. response—Variable slope of analysis software GraphPad Prism 5 was used to fit the curve to obtain the IC50 value of each compound on the enzyme activity. Calculation formula: Y=Bottom+(Top−Bottom)/(1+10^((Log IC50−X)*HillSlope)).

[3] = target: MAP4K1 (HPK1) (Homo sapiens, UniProt Q92918); experiment: MAP4K1 (HPK1) kinase activity inhibition, Caliper mobility shift assay; assay type: biochemical; conditions: kinase 1.25 nM, ATP 10.1 μM
Procedure: 4. MAP4K1 (HPK1) Kinase Activity Inhibition Experiment: Caliper mobility shift assay was used to detect the inhibitory effect of the compound on MAP4K1 (HPK1) kinase activity. The test concentration of the compound starts at 500 nM, and is diluted 5 folds into 5 concentration points. Use a dispenser Echo 550 to transfer 250 nL 100-fold final concentration of the compound to the target plate 3573, add 10 μL of MAP4K1 (HPK1) kinase solution with a final concentration of 1.25 nM, and incubate for 10 minutes at room temperature (the negative control well contains 10 μL kinase buffer and 250 nL 100% DMSO; the positive control well contains 10 μL kinase solution and 250 nL 100% DMSO). On the kinase MAP4K1 (HPK1), add 15 μL of ATP with a final concentration of 10.1 μM and 3 μM substrate peptide No. 25 mixed solution to react for 120 minutes. Add 30 μL of stop solution containing EDTA to stop the kinase reaction. Use Caliper EZ Reader to read the conversion rate. Inhibition rate %=(Average positive control conversion rate %−Sample conversion rate %/(Average positive control conversion rate %−Average negative control conversion rate %). Among them: negative control wells represent the conversion rate readings without enzyme activity; positive control wells represent the conversion rate readings of wells without compound inhibition. Take the log value of the concentration as the X-axis, and the percentage inhibition rate on the Y-axis. Log (inhibitor) vs. response—Variable slope of analysis software GraphPad Prism 5 was used to fit the curve to obtain the IC50 value of each compound on the enzyme activity. Calculation formula: Y=Bottom+(Top−Bottom)/(1+10 ^((Log IC50−X)*HillSlope)).

[4] = target: T1, Ba/F3_EGFR del19/T790M/C797S cells (Homo sapiens, UniProt P00533, T790M/C797S, cells depend on it, form not given); experiment: Ba/F3_EGFR (del19-T790M-C797S) cell proliferation inhibition, CTG, method 2; assay type: cell-based; conditions: 2000 cells/well, 72 h, read-out: Ba/F3_EGFR (del19-T790M-C797S) cell proliferation inhibition (IC50 value) Method 2
Procedure: Take a small amount of cells and count them with ViCell. 2) Adjust the cell density, inoculate the cells in a 384-well plate at 2000/well, and incubate in a 37° C., 5% CO2 incubator for 4 hours. 3) Set up the program of Tecan HP D300, add the compound to the well plate. The maximum initial concentration of the compound is 1-4 μM, 3 folds dilution, 9 concentrations, and the DMSO content in each well is unified to 0.2%.
CTG method detection: 1) Take out the CTG reagent and cell plate and equilibrate at room temperature for 30 min, add 25 μL CTG to each well, shake at medium speed for 2 min, centrifuge at 1000 rpm for 1 minutes, and stand still at room temperature for 10 minutes. 2) Envision instrument reads the chemiluminescence signal value.
Data analysis: IC50 results are analyzed by IDBS's XL-fit 5.0 software.

[5] = Pharmacokinetic study in rats after intragastrical administration; assay type: in vivo; conditions: male, rat, plasma, po, SD rats, 3 mg/kg; for AUC(0-t): read-out: AUC0-24 h
Procedure: Example 55: Pharmacokinetic Study in Rats
Instruments: XEVO TQ-S LC/MS instrument produced by Waters. All measurement data is collected and processed by Masslynx V4.1 software, and the data is calculated and processed by Microsoft Excel. Using WinNonLin 8.0 software, the statistical moment method was used to calculate the pharmacokinetic parameters. Mainly include kinetic parameters Tmax, T1/2, Cmax, AUClast etc. […] Injection volume: 5 μL.
Animals: 3 male SD rats with a weight range of 200-220 g. After purchase, they will be kept in the laboratory of the Experimental Animal Center for 2 days and then used. They will be fasted for 12 hours predose and 4 hours after dosing. Drinking water is free during the test. After the rats were gavage, blood samples were taken according to the established time point.
Solvent: 0.5% Methylcellulose (aqueous solution containing 0.4% Tween 80 and 1% ethanol). Preparation of the solution for intragastrical administration: accurately weigh the compound, add it to the solvent, and ultrasonically at room temperature for 5 minutes to completely dissolve the drug, and prepare a 0.3 mg/ml medicinal solution.
Pharmaceutical samples: representative compounds of the structure shown in the patented formula (I) of the present invention, generally, multiple samples with similar structures (with a molecular weight difference of more than 2 units) are taken, accurately weighed, and administered together (cassette PK). In this way, multiple compounds can be screened at the same time and their oral absorption rates can be compared. A single administration was also used to study the pharmacokinetics of the drug sample in rats.
After intragastrical administration, blood was taken from the orbit at 0.25, 0.5, 1, 2, 4, 9, 12 and 24 hours, and placed in a plastic centrifuge tube pretreated with sodium heparin. After centrifugation, the supernatant plasma was used for LC-MS/MS analysis.
Accurately weigh the compounds to prepare different concentrations, perform quantitative analysis on mass spectrometry to establish a standard curve, and then test the concentration of the above-mentioned compound in the plasma to obtain the compound concentration at different time points. All measurement data are collected and processed by relevant software, and the statistical moment method is used to calculate the pharmacokinetic parameters (mainly including kinetic parameters Tmax, T1/2, Cmax, AUClast etc). The results are as follows:
Table 7: Pharmacokinetic Parameters of the Compounds after Intragastrical Administration in SD Rats

[6] = target: T1, Ba/F3_EGFR del19/T790M/C797S cells; experiment: Ba/F3_EGFR (del19-T790M-C797S) cell proliferation inhibition, CTG, method 1; assay type: cell-based
Procedure: The cells were cultured in a 37° C., 5% CO2 incubator.
Cell plating and compound treatment: 1) Cells are routinely cultured until the cell saturation is 80%-90%, and when the number reaches the requirement, the cells are collected. 2) Resuspend in the corresponding fresh medium, take a small amount of cells to count, and prepare a cell suspension with a suitable density. 3) Inoculate the cell suspension into a 384-well plate at 700 cells/well, 30 μL per well. 4) Use Echo to add the compound to the corresponding cell well. The maximum starting concentration of the compound is 1-10 μM, 3 folds dilution, 8 concentrations.
CTG method detection: 1) Add 30 μL of CTG reagent (CelltiterGlo kit) to each well, and let it stand for 30 minutes at 37° C. and 5% CO2 in the dark. 2) Use Envision instrument to read the chemiluminescence signal value.
Data analysis: IC50 results are analyzed by GraphPad Prism 6 software. […] X: log value of compound concentration; Y: inhibition rate (% inhibition); inhibition rate (% inhibition)=(blank control well reading−compound well reading)/(blank control well reading−positive control reading)×100.

[7] = 700 cells/well, 72 h, read-out: Ba/F3_EGFR (del19-T790M-C797S) cell proliferation inhibition (IC50 value) Method 1

Chain of EGFR (T790M/L858R/C797S) (P00533 25-1210 T790M/C797S/L858R): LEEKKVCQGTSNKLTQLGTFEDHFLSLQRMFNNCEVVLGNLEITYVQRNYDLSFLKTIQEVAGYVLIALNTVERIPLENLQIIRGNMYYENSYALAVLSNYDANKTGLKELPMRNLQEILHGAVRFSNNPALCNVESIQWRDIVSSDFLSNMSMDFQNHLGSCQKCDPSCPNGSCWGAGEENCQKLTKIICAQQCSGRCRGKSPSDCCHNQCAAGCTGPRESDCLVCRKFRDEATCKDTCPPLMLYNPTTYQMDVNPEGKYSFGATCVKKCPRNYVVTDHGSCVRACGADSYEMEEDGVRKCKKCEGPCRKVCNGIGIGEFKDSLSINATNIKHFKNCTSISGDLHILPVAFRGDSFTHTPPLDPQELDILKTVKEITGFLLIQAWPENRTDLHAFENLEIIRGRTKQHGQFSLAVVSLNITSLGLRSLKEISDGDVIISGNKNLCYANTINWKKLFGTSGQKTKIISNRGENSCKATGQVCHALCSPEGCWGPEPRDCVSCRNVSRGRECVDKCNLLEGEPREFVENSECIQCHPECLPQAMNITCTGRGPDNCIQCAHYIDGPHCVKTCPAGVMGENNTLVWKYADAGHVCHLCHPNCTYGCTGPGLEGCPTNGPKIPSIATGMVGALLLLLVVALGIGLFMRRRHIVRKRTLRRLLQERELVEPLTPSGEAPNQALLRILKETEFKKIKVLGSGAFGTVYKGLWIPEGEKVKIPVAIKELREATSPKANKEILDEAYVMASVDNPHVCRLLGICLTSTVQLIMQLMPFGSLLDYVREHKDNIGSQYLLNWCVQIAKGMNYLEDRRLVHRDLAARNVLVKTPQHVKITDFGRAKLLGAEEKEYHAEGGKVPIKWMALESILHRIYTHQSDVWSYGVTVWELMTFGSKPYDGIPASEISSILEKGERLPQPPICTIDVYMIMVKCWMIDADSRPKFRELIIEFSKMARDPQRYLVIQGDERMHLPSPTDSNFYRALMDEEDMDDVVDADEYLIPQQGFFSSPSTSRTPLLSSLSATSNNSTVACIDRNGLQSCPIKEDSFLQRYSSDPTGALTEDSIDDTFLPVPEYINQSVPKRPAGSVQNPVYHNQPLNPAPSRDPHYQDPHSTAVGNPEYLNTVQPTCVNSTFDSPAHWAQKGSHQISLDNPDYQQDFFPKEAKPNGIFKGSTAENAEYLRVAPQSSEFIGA
Chain of MAP4K1 (HPK1) (Q92918 whole entry): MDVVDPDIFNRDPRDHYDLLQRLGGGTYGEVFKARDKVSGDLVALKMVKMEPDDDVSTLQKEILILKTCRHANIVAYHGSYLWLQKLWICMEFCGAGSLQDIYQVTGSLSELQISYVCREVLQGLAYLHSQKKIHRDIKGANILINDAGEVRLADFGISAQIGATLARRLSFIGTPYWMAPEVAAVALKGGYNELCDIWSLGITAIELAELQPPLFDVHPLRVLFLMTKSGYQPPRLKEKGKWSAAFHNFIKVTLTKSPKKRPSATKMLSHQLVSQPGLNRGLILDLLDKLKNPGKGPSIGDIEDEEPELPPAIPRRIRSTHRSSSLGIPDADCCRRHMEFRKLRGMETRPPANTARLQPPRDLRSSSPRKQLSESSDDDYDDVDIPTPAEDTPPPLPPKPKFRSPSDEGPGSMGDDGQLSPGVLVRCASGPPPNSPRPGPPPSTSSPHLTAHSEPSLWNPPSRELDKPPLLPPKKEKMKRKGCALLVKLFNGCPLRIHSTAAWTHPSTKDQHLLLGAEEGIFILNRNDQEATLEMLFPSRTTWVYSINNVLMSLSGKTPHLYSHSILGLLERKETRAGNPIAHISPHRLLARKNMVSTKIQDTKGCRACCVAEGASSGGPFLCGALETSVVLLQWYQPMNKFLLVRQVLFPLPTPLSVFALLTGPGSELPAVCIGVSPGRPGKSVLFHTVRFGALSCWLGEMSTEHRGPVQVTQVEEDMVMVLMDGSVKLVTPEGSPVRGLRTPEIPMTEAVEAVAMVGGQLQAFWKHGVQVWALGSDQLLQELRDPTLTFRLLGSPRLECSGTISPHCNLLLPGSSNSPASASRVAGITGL
T1 sequence (P00533 with tags, fused parts or gaps DEL746-750/T790M/C797S, form open): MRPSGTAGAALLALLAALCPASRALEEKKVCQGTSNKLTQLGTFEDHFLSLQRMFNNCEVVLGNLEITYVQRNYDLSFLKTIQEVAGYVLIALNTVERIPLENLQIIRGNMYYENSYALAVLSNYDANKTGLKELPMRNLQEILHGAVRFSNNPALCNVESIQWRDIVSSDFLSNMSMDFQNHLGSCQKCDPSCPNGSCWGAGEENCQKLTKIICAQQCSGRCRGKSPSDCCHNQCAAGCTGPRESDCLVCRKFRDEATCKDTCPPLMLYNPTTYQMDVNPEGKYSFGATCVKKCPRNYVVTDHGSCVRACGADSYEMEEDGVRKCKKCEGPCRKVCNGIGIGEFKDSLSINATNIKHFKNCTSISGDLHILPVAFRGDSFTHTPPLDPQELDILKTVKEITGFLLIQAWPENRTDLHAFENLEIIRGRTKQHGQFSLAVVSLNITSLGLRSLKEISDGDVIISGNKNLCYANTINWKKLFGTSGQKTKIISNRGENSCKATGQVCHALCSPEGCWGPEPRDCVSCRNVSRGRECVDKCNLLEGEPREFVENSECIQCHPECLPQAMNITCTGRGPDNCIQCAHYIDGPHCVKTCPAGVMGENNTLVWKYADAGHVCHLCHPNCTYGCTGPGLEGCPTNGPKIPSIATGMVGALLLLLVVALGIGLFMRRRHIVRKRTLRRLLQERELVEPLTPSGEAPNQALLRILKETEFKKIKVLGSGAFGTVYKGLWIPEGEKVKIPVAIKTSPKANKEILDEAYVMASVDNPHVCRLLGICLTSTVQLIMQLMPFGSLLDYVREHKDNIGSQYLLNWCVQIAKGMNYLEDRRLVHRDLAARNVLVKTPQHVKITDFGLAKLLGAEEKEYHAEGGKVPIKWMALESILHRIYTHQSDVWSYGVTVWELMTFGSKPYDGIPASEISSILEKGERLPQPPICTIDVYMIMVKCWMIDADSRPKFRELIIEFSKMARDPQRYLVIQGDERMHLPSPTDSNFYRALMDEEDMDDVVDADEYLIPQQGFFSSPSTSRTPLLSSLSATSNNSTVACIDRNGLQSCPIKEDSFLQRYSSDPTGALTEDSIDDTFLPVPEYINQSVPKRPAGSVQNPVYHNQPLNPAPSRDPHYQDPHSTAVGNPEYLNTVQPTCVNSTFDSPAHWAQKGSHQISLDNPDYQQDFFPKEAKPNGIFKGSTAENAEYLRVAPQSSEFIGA
Chain of ALK (Q9UM73 19-1620): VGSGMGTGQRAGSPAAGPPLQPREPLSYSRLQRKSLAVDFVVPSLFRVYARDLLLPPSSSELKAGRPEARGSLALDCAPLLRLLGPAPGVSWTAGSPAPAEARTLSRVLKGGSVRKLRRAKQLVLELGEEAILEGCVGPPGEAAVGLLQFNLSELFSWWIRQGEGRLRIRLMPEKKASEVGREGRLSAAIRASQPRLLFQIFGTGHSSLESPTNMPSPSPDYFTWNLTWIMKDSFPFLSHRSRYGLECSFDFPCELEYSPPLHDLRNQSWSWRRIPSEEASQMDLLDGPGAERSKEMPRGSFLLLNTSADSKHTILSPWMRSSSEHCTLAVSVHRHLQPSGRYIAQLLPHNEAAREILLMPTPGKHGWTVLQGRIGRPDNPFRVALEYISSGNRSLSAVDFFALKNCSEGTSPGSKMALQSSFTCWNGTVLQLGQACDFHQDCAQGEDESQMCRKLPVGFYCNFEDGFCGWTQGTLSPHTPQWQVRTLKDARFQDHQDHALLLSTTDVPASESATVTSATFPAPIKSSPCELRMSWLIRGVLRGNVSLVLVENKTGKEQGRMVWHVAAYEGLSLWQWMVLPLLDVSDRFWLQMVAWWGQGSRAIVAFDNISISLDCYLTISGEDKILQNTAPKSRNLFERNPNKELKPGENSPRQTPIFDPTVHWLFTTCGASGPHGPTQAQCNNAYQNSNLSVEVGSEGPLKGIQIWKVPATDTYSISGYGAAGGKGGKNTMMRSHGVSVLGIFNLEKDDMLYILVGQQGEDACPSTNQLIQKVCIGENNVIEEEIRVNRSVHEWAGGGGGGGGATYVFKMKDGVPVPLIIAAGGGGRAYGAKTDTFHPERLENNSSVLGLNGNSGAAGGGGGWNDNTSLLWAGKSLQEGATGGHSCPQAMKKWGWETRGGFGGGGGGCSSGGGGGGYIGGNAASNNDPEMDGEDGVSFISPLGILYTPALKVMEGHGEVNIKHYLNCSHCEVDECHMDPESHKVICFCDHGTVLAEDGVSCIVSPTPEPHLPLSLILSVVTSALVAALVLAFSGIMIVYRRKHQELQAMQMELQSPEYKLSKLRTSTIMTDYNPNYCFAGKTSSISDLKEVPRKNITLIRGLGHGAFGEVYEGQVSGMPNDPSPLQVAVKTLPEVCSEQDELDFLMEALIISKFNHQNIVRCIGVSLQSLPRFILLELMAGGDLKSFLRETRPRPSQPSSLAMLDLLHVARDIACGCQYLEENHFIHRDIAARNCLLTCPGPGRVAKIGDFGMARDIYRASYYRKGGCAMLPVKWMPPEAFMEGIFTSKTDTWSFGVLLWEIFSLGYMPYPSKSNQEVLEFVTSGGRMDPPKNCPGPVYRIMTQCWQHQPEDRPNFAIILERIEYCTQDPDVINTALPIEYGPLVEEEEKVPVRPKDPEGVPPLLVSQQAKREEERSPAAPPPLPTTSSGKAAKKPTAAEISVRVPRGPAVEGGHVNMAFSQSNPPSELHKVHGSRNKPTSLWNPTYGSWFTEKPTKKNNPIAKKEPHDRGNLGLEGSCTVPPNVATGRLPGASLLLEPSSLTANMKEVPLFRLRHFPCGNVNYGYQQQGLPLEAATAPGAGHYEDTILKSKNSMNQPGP

Row | Compound | pIC50 [1] | pIC50 [2] | pIC50 [3] | GI50 [4] | Cmax [5] | Tmax [5] | half-life [5] | AUC(0-t) [5] | GI50 [6, 7] | GI50 ([6]; read-out: Ba/F3_EGFR (del19-T790M-C797S) cell proliferation inhibition (IC50 value) Method 1, 700 cells/well, 72 h)
1 | Cc1cc(Nc2ncc(Cl)c(Nc3ccccc3P(C)(C)=O)n2)cc2c1N1CCN(C3CCOCC3)C[C@@H]1CO2 [Compound 31R] | 7.30 to 9.00 | > 8.52 | ≥ 9.00 | 20 to 100 nM | 78.4 ng/mL | 6.33 h | 5.18 h | 687 ng·h/mL | – | –
2 | C=CC(=O)N1CCN2c3c(C)cc(Nc4ncc(Cl)c(Nc5ccccc5P(C)(C)=O)n4)cc3OC[C@H]2C1 [Compound 26R] | 7.30 to 9.00 | 7.82 to 8.52 | ≥ 9.00 | – | – | – | – | – | < 20 nM | –
3 | Cc1cc(Nc2ncc(Cl)c(Nc3ccccc3P(C)(C)=O)n2)cc2c1N1CCN(C)C[C@@H]1CO2 [Compound 25R] | 7.30 to 9.00 | > 8.52 | ≥ 9.00 | – | 61.4 ng/mL | 6.33 h | 6.75 h | 585 ng·h/mL | < 20 nM | –
4 | COc1cc(N2CCC(N3CCN(C)CC3)CC2)ccc1Nc1ncc(Cl)c(Nc2ccccc2P(C)(C)=O)n1 [Brigatinib, reference compound] | – | – | 7.00 to 8.00 | > 200 nM | – | – | – | – | – | 100 to 200 nM
5 | Cc1cc(Nc2ncc(Cl)c(Nc3ccccc3P(C)(C)=O)n2)cc2c1N1CCN(C3CN(C)C3)C[C@H]1CO2 [Compound 34S] | – | > 8.52 | ≥ 9.00 | < 20 nM | – | – | – | – | – | –
6 | Cc1cc(Nc2ncc(Cl)c(Nc3ccccc3P(C)(C)=O)n2)cc2c1N1CCN(C3CCN(C4CC4)CC3)C[C@@H]1CO2 [Compound 33R] | – | > 8.52 | ≥ 9.00 | 20 to 100 nM | 120 ng/mL | 7.33 h | 3.88 h | 1780 ng·h/mL | – | –
7 | CN1CCC(N2CCN3c4c(F)cc(Nc5ncc(Cl)c(Nc6ccccc6P(C)(C)=O)n5)cc4OC[C@@H]3C2)CC1 [Compound 35S] | – | > 8.52 | ≥ 9.00 | 20 to 100 nM | 15 ng/mL | 4.33 h | 3.97 h | 179 ng·h/mL | – | –
8 | Cc1cc(Nc2ncc(Cl)c(Nc3ccccc3P(C)(C)=O)n2)cc2c1N1CCN(C3CCN(C)CC3)C[C@H]1CO2 [Compound 27S] | 7.30 to 9.00 | > 8.52 | ≥ 9.00 | < 20 nM | 140 ng/mL | 10 h | 5.2 h | 2100 ng·h/mL | – | –
9 | CCN1CCC(N2CCN3c4c(C)cc(Nc5ncc(Cl)c(Nc6ccccc6P(C)(C)=O)n5)cc4OC[C@H]3C2)CC1 [Compound 30R] | 7.30 to 9.00 | > 8.52 | ≥ 9.00 | 20 to 100 nM | – | – | – | – | – | –
10 | Cc1cc(Nc2ncc(Cl)c(Nc3ccccc3P(C)(C)=O)n2)cc2c1N1CCN(C3CCOCC3)C[C@H]1CO2 [Compound 31S] | – | > 8.52 | ≥ 9.00 | 20 to 100 nM | 160 ng/mL | 1 h | 6.27 h | 1350 ng·h/mL | – | –
